Test results from US9593097B2, “Axl inhibitors” (Pfizer Inc., priority 2014, dated 2017).

What follows are compounds tested against Axl phosphorylation in 293MSR-AxlWT6 cells (Homo sapiens (Human), UniProt P30530) (assay: Cellular Axl phosphorylation ELISA assay (Gas6-stimulated 293MSR-AxlWT6 cells)). Settings: Table 4A, read-out: CELL AXL IC50.
Type: cell-based
Method: Cellular Axl Phosphorylation ELISA Assay
After 6-7 hrs in tissue culture incubator at 37° C. 5% CO2, medium was removed, serum-free medium was added (with 0.04% bovine serum albumin) and plates were returned to incubator where they remained overnight. […] Media was then removed and lysis buffer was added to wells and shaken at 4° C. for 30 min to generate protein lysates. Subsequently, phosphorylation of Axl was assessed by a sandwich ELISA method using a DuoSet IC Human Phospho-Axl ELISA assay kit (R&D System), an immobilized mouse anti-human Axl antibody and an anti-phospho-tyrosine-HRP antibody as a detection antibody. Antibody-coated plates were (a) incubated in presence of protein lysates at room temperature for 2 hrs, (b) washed seven times in 0.1% Tween 20 in PBS, (c) incubated with secondary antibody (a horseradish peroxidase-conjugated […]) for 2 hrs, (d) washed seven times again, (e) TMB peroxidase substrate (Bio-Rad) was added to initiate a colorimetric reaction and stopped by adding 0.2 N H2SO4, and (f) measured at OD 450 nm using a spectrophotometer. IC50 values were calculated by concentration-response curve fitting using a four-parameter analytic method and reported in μM.
For Table 4B, IC50 values were calculated by concentration-response curve fitting using a four-parameter analytic method and reported in nM.

Chain of Axl phosphorylation in 293MSR-AxlWT6 cells (P30530 26-894): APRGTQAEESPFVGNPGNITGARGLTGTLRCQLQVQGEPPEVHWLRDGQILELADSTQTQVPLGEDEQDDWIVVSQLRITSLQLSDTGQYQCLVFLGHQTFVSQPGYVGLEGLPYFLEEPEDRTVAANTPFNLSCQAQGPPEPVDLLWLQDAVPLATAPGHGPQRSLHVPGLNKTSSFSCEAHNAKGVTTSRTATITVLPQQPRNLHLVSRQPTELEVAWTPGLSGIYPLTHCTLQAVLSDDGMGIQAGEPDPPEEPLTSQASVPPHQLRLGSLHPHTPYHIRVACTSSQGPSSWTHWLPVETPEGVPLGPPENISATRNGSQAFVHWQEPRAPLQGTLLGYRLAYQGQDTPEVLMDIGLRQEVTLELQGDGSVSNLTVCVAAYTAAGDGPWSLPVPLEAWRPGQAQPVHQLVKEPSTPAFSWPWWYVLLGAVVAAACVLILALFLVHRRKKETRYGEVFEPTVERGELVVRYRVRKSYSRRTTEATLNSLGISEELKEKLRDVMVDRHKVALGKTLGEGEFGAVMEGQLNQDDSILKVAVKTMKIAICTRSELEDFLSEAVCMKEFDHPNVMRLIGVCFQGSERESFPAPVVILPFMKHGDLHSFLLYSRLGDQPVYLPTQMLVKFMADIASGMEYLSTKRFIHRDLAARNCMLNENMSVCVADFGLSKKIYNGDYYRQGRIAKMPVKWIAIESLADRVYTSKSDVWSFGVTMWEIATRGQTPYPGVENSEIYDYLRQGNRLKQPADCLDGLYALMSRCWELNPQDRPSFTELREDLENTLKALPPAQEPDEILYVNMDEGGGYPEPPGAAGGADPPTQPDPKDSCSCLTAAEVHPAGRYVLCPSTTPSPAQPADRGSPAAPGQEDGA

| Compound | IC50 [nM] |
| --- | --- |
| CCNC(=O)c1cc(N2CCC(COc3cc(-c4cnn(C)c4)cnc3N)CC2)nc(OC[C@H]2C[C@H]2C#N)n1 [Example 25, 6-[4-({[2-amino-5-(1-methyl-1H-pyrazol-4-yl)pyridin-3-yl]oxy}methyl)piperidin-1-yl]-2-{[(1S,2R)-2-cyanocyclopropyl]methoxy}-N-ethylpyrimidine-4-carboxamide] | 1.78 |
| C[C@H](CO)NC(=O)c1cc(N2CCC(c3n[nH]c4ncccc34)CC2)nc(OC[C@@H]2CCOC2)n1 [Example 382, N-[(2R)-1-hydroxypropan-2-yl]-6-[4-(1H-pyrazolo[3,4-b]pyridin-3-yl)piperidin-1-yl]-2-[(3R)-tetrahydrofuran-3-ylmethoxy]pyrimidine-4-carboxamide] | 154 |
| CN(C)CCOc1ccc(C(N)=O)nc1C1CCN(c2cc(C(=O)NC3CCC3)nc(OCC3CC3(F)F)n2)CC1 (centres unmarked) [Example 39, 6-(4-{6-carbamoyl-3-[2-(dimethylamino)ethoxy]pyridin-2-yl}piperidin-1-yl)-N-cyclobutyl-2-[(2,2-difluoro-cyclopropyl)methoxy] pyrimidine-4-carboxamide] | 83.8 |
| CN(C)CCOc1ccc(C(N)=O)nc1C1CCN(c2cc(C(=O)NC3CCC3)nc(OC[C@H]3C[C@H]3C#N)n2)CC1 [Example 18, 6-(4-{6-carbamoyl-3-[2-(dimethylamino)ethoxy]pyridin-2-yl}piperidin-1-yl)-2-{[(1S,2R)-2-cyanocyclopropyl]methoxy}-N-cyclobutyl-pyrimidine-4-carboxamide] | 64.9 |
| CCNC(=O)c1cc(N2CCC(COc3cc(-c4cnn(C)c4)cnc3N)CC2)nc(OCC(C)O)n1 (centres unmarked) [Example 45, 6-[4-({[2-amino-5-(1-methyl-1H-pyrazol-4-yl)pyridin-3-yl]oxy}methyl)piperidin-1-yl]-N-ethyl-2-(2-hydroxypropoxy) pyrimidine-4-carboxamide] | 235 |
| COC[C@@H](C)Oc1nc(C(=O)NC23CC(C2)C3)cc(N2CCC(COc3nc(C)cnc3N)CC2)n1 [Example 24, 6-(4-{[(3-amino-6-methylpyrazin-2-yl)oxy]methyl}piperidin-1-yl)-N-(bicyclo[1.1.1]pent-1-yl)-2-{[(2R)-1-methoxypropan-2-yl]oxy}pyrimidine-4-carboxamide] | 1.92 |
| C[C@H](CO)NC(=O)c1cc(N2CCC(c3n[nH]c4ncccc34)CC2)nc(OC[C@H]2C[C@H]2C#N)n1 [Example 43, 2-{[(1S,2R)-2-cyanocyclopropyl]methoxy}-N-[(2R)-1-hydroxypropan-2-yl]-6-[4-(1H-pyrazolo[3,4-b]pyridin-3-yl)piperidin-1-yl]pyrimidine-4-carboxamide] | 131 |
| C[C@H](CO)NC(=O)c1cc(N2CCC(c3n[nH]c4ncccc34)CC2)nc(OC[C@H]2CCOC2)n1 [Example 383, N-[(2R)-1-hydroxypropan-2-yl]-6-[4-(1H-pyrazolo[3,4-b]pyridin-3-yl)piperidin-1-yl]-2-[(3S)-tetrahydrofuran-3-ylmethoxy]pyrimidine-4-carboxamide] | 120 |
| CCNC(=O)c1cc(N2CCC(COc3cc(C#N)cnc3N)CC2)nc(O[C@H](C)COC)n1 [Example 21, 6-(4-{[(2-amino-5-cyanopyridin-3-yl)oxy]methyl}piperidin-1-yl)-N-ethyl-2-{[(2R)-1-methoxypropan-2-yl]oxy}pyrimidine-4-carboxamide] | 37 |
| COC[C@@H](C)Oc1nc(C(=O)NC23CC(C2)C3)nc(N2CCC(c3ccc(N)c(C(N)=O)n3)CC2)n1 [Example 54, 4-[4-(5-amino-6-carbamoylpyridin-2-yl)piperidin-1-yl]-N-(bicyclo[1.1.1]pent-1-yl)-6-{[(2R)-1-methoxypropan-2-yl]oxy}-1,3,5-triazine-2-carboxamide] | 5.27 |
| CC(C)(C)NC(=O)c1cc(N2CCC(c3n[nH]c4ncncc34)CC2)nc(OC[C@H]2C[C@H]2C#N)n1 [Example 48, N-tert-butyl-2-{[(1S,2R)-2-cyanocyclopropyl]methoxy}-6-[4-(1H-pyrazolo[3,4-d]pyrimidin-3-yl)piperidin-1-yl]pyrimidine-4-carboxamide] | 38.1 |
| COC[C@@H](C)Oc1nc(C(=O)NC2CCC2)cc(N2CCC(c3cccc(C(N)=O)n3)CC2)n1 [Example 11, 6-[4-(6-carbamoylpyridin-2-yl)piperidin-1-yl]-N-cyclobutyl-2-{[(2R)-1-methoxypropan-2-yl]oxy}pyrimidine-4-carboxamide] | 10.2 |
| N#C[C@@H]1C[C@@H]1COc1nc(C(=O)NCC(F)(F)F)cc(N2CCC(COc3cncnc3N)CC2)n1 [Example 33, 6-(4-{[(4-aminopyrimidin-5-yl)oxy]methyl}piperidin-1-yl)-2-{[(1S,2R)-2-cyanocyclopropyl]methoxy}-N-(2,2,2-trifluoroethyl) pyrimidine-4-carboxamide] | 23.4 |
| N#CC1(COc2nc(C(=O)NCC(F)(F)F)cc(N3CCC(COc4cncnc4N)CC3)n2)CC1 [Example 31, 6-(4-{[(4-aminopyrimidin-5-yl)oxy]methyl}piperidin-1-yl)-2-[(1-cyanocyclopropyl)methoxy]-N-(2,2,2-trifluoroethyl) pyrimidine-4-carboxamide] | 12.6 |
| 6-{4-[(3-amino- 1H-indazol-4- yl)oxy]piperidin-1- yl}-N- (bicyclo[1.1.1]pent- 1-yl)-2-[(1- cyanocyclopropyl) methoxy] pyrimidine- 4-carboxamide [Example 19] | 24.7 |
| N#C[C@@H]1C[C@@H]1COc1nc(C(=O)NC23CC(C2)C3)cc(N2CCC(COc3cncnc3N)C(F)(F)C2)n1 (single isomer, unassigned) [Example 62] | 38.7 |
| N#CC1(COc2nc(C(=O)NC34CC(C3)C4)nc(N3CCC(COc4cccnc4N)CC3)n2)CC1 [Example 90, 4-(4-{[(2-aminopyridin-3-yl)oxy]methyl}piperidin-1-yl)-N-(bicyclo[1.1.1]pent-1-yl)-6-[(1-cyanocyclopropyl)methoxy]-1,3,5-triazine-2-carboxamide] | 6.98 |

Second part, the compound after the results:

| IC50 [nM] | Compound |
| --- | --- |
| 0.4 | COc1ccnc2[nH]cc(C3CCN(c4cc(C(=O)N[C@H](C)CO)nc(OC[C@H]5C[C@H]5C#N)n4)CC3)c12 [Example 377, 2-{[(1S,2R)-2-cyanocyclopropyl]methoxy}-N-[(2R)-1-hydroxypropan-2-yl]-6-[4-(4-methoxy-1H-pyrrolo[2,3-b]pyridin-3-yl)piperidin-1-yl]pyrimidine-4-carboxamide] |
| 29.1 | COC[C@@H](C)Oc1nc(C(=O)NCC(F)(F)F)cc(N2CCC(c3ccc(N)c(C(N)=O)n3)CC2)n1 [Example 6, 6-[4-(5-amino-6-carbamoylpyridin-2-yl)piperidin-1-yl]-2-{[(2R)-1-methoxypropan-2-yl]oxy}-N-(2,2,2-trifluoroethyl) pyrimidine-4-carboxamide] |
| 12.4 | COC[C@@H](C)Oc1nc(C(=O)NC2(C#N)CCC2)cc(N2CCC(c3n[nH]c4ncccc34)CC2)n1 [Example 14, N-(1-cyanocyclobutyl)-2-{[(2R)-1-methoxypropan-2-yl]oxy}-6-[4-(1H-pyrazolo[3,4-b]pyridin-3-yl)piperidin-1-yl]pyrimidine-4-carboxamide] |
| 12.4 | NC(=O)c1nc(C2CCN(c3cc(C(=O)NCC(F)(F)F)nc(OCC4CC4(F)F)n3)CC2)ccc1N (centres unmarked) [Example 5, 6-[4-(5-amino-6-carbamoylpyridin-2-yl)piperidin-1-yl]-2-[(2,2-difluoro-cyclopropyl)methoxy]-N-(2,2,2-trifluoroethyl) pyrimidine-4-carboxamide] |
| 66 | N#C[C@@H]1C[C@@H]1COc1nc(C(=O)NCC2CC2)nc(N2CCC(c3ccc(N)c(C(N)=O)n3)CC2)n1 [Example 87, 4-[4-(5-amino-6-carbamoylpyridin-2-yl)piperidin-1-yl]-6-{[(1S,2R)-2-cyanocyclopropyl]methoxy}-N-(cyclopropyl-methyl)-1,3,5-triazine-2-carboxamide] |
| 2.74 | N#CC1(COc2nc(C(=O)NC34CC(C3)C4)nc(N3CCC(c4n[nH]c5ncccc45)CC3)n2)CC1 [Example 59, N-(bicyclo[1.1.1]pent-1-yl)-4-[(1-cyanocyclopropyl)methoxy]-6-[4-(1H-pyrazolo[3,4-b]pyridin-3-yl)piperidin-1-yl]-1,3,5-triazine-2-carboxamide] |
| 8.36 | C[C@@H](NC(=O)c1cc(N2CCC(c3ccc(N)c(C(N)=O)n3)CC2)nc(OCC2CC2(F)F)n1)C(C)(C)O (single isomer, unassigned) [Example 15] |
| 5.21 | N#C[C@@H]1C[C@@H]1COc1nc(C(=O)NC23CC(C2)C3)cc(N2CCC(c3n[nH]c4ncc(OCCO)cc34)CC2)n1 [Example 81, N-(bicyclo[1.1.1]pent-1-yl)-2-{[(1S,2R)-2-cyanocyclopropyl]methoxy}-6-{4-[5-(2-hydroxyethoxy)-1H-pyrazolo[3,4-b]pyridin-3-yl]piperidin-1-yl}pyrimidine-4-carboxamide] |
| 4.31 | C[C@H](CO)NC(=O)c1cc(N2CCC(c3n[nH]c4ncccc34)CC2)nc(OCC2CC2)n1 [Example 72, 2-(cyclopropyl-methoxy)-N-[(2R)-1-hydroxypropan-2-yl]-6-[4-(1H-pyrazolo[3,4-b]pyridin-3-yl)piperidin-1-yl]pyrimidine-4-carboxamide] |
